These compounds were tested against T1, Androgen receptor (Rattus norvegicus, UniProt P15207).
T1 sequence (P15207 whole entry): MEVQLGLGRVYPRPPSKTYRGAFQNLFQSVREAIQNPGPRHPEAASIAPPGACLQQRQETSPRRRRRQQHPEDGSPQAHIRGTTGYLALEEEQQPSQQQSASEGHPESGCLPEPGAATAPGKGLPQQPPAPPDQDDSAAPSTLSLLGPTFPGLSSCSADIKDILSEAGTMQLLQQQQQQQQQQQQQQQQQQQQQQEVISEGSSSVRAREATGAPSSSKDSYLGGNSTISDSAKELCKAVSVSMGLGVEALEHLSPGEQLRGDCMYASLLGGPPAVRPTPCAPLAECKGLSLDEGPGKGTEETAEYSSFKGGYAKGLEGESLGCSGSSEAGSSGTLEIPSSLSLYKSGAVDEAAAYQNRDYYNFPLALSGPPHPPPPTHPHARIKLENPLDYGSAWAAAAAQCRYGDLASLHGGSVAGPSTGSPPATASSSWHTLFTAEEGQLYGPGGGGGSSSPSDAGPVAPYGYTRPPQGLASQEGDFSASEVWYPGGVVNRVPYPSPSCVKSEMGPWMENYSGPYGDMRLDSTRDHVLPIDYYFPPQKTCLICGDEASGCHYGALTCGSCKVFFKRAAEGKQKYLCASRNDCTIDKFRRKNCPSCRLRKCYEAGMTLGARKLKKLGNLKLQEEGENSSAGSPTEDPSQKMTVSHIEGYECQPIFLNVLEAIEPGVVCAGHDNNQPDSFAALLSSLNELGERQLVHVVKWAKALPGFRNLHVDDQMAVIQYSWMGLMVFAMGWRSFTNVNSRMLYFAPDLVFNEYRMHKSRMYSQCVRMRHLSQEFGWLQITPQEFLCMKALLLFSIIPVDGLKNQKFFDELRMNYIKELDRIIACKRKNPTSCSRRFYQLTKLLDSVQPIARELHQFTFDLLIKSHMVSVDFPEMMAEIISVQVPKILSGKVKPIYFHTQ
Description: Inhibitory constant against rat prostate cytosol androgen receptor using [3H]mibolerone

How did the Ki turn out when `CC1(C)C(=O)N(c2ccc(C#N)c(C(F)(F)F)c2)C(=S)N1CCCCO` was run?
The Ki was 2.23 nM.

For `CC1(C)C(=O)N(c2ccc(C#N)c(I)c2)C(=S)N1CCCCO`, which Ki is on record?
The Ki was 0.71 nM.

`C[C@@H]1CC2=CC(=O)CC[C@@H]2[C@H]2CC[C@@]3(C)[C@@H](CC[C@]3(C)O)[C@@H]21` [MIBOLERONE] was tested. Which Ki did it give?
Its Ki is 0.75 nM.
